ChEMBL document CHEMBL1201861, “Genomics of Drug Sensitity in Cancer screening data, Wellcome Trust Sanger Institute”

Tests used:
Assay in all cases: cells
Type in all cases: functional, cell-based, Homo sapiens
NCI-H661 = conditions: Homo sapiens, NCI-H661;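 further: cell viability assay read-out, IC50 being the concentration that inhibits growth of the cells by half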
Description: SANGER: Inhibition of human NCI-H661 cell growth in a cell viability assay.

RPMI-7951 = conditions: Homo sapiens, RPMI-7951
Description: SANGER: Inhibition of human RPMI-7951 cell growth in a cell viability assay.

AN3-CA = conditions: Homo sapiens, AN3-CA;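 further: growth inhibition of human AN3-CA cells measured by a cell viability assay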
Description: SANGER: Inhibition of human AN3-CA cell growth in a cell viability assay.

HCC1937 = conditions: Homo sapiens, HCC1937;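 further: growth inhibition measured with a cell viability read-out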
Description: SANGER: Inhibition of human HCC1937 cell growth in a cell viability assay.

NCI-H292 = conditions: Homo sapiens, NCI-H292;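 further: growth inhibition of NCI-H292 cells, read out with a cell viability assay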
Description: SANGER: Inhibition of human NCI-H292 cell growth in a cell viability assay.

UO-31 = conditions: Homo sapiens, UO-31;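 further: cell viability assay measuring inhibition of cell growth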
Description: SANGER: Inhibition of human U031 cell growth in a cell viability assay.

CAMA-1 = conditions: Homo sapiens, CAMA-1;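 further: growth inhibition of CAMA-1 cells, read out with a cell viability assay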
Description: SANGER: Inhibition of human CAMA-1 cell growth in a cell viability assay.

SNU-449 = conditions: Homo sapiens, SNU-449
Description: SANGER: Inhibition of human SNU-449 cell growth in a cell viability assay.

COLO-792 = conditions: Homo sapiens, COLO-792
Description: SANGER: Inhibition of human COLO-792 cell growth in a cell viability assay.

KYSE-180 = conditions: Homo sapiens, KYSE-180;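 further: growth inhibition of KYSE-180 cells, read out with a cell viability assay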
Description: SANGER: Inhibition of human KYSE-180 cell growth in a cell viability assay.

SW756 = conditions: Homo sapiens, SW756;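 further: growth inhibition of human SW756 cells, read out with a cell viability assay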
Description: SANGER: Inhibition of human SW756 cell growth in a cell viability assay.

SCC-9 = conditions: Homo sapiens, SCC-9;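 further: Read-out is a cell viability assay, with values giving inhibition of cell growth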
Description: SANGER: Inhibition of human SCC-9 cell growth in a cell viability assay.

PFSK-1 = conditions: Homo sapiens, PFSK-1;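 further: cell viability assay measuring how strongly compounds suppress growth of human PFSK-1 cells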
Description: SANGER: Inhibition of human PFSK-1 cell growth in a cell viability assay.

HEC-1 = conditions: Homo sapiens, HEC-1;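 further: growth inhibition of the cell line, read out with a cell viability assay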
Description: SANGER: Inhibition of human HEC-1 cell growth in a cell viability assay.

Hs-578T = conditions: Homo sapiens, Hs-578T
Description: SANGER: Inhibition of human Hs-578-T cell growth in a cell viability assay.

MIA PaCa-2 = conditions: Homo sapiens, MIA PaCa-2;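 further: growth inhibition of MIA PaCa-2 cells, read out with a cell viability assay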
Description: SANGER: Inhibition of human MIA-PaCa-2 cell growth in a cell viability assay.

RCM-1 = conditions: Homo sapiens, RCM-1;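 further: growth inhibition of the RCM-1 line, determined with a cell viability readout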
Description: SANGER: Inhibition of human RCM-1 cell growth in a cell viability assay.

A 172 = conditions: Homo sapiens, A 172;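 further: growth inhibition of A172 cells, measured with a cell viability readout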
Description: SANGER: Inhibition of human A172 cell growth in a cell viability assay.

RERF-LC-MS = conditions: Homo sapiens, RERF-LC-MS;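 further: growth inhibition of human RERF-LC-MS cells, read out by a cell viability assay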
Description: SANGER: Inhibition of human RERF-LC-MS cell growth in a cell viability assay.

C-33-A = conditions: Homo sapiens, C-33-A;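 further: cell viability assay measuring growth inhibition of C-33-A cells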
Description: SANGER: Inhibition of human C-33-A cell growth in a cell viability assay.

CAPAN-1 = conditions: Homo sapiens, CAPAN-1;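 further: growth suppression of CAPAN-1 cells, read out by a cell viability assay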
Description: SANGER: Inhibition of human CAPAN-1 cell growth in a cell viability assay.

MKN-28 = conditions: Homo sapiens, MKN-28;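 further: cell viability assay read-out, IC50 reflects suppression of growth of human MKN-28 cells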
Description: SANGER: Inhibition of human MKN28 cell growth in a cell viability assay.

SW1783 = conditions: Homo sapiens, SW1783;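 further: cell growth inhibition measured with a viability assay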
Description: SANGER: Inhibition of human SW1783 cell growth in a cell viability assay.

EFO-21 = conditions: Homo sapiens, EFO-21;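 further: growth inhibition of EFO-21 cells measured with a viability assay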
Description: SANGER: Inhibition of human EFO-21 cell growth in a cell viability assay.

SiHa = conditions: Homo sapiens, SiHa;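 further: Viability-based readout of growth inhibition in SiHa cells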
Description: SANGER: Inhibition of human SiHa cell growth in a cell viability assay.

COR-L23 = conditions: Homo sapiens, COR-L23;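 further: cell viability assay measuring how strongly compounds suppress growth of COR-L23 cells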
Description: SANGER: Inhibition of human COR-L23 cell growth in a cell viability assay.

SNU-423 = conditions: Homo sapiens, SNU-423
Description: SANGER: Inhibition of human SNU-423 cell growth in a cell viability assay.

A549 = conditions: Homo sapiens, A549;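 further: growth inhibition of A549 cells, read out with a cell viability assay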
Description: SANGER: Inhibition of human A549 cell growth in a cell viability assay.

HuO-3N1 = conditions: Homo sapiens, HuO-3N1;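 further: cell viability readout used to measure how strongly compounds suppress proliferation of human HuO-3N1 cells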
Description: SANGER: Inhibition of human HuO-3N1 cell growth in a cell viability assay.

HCT-116 = conditions: Homo sapiens, HCT-116
Description: SANGER: Inhibition of human HCT-116 cell growth in a cell viability assay.

CHL-1 = conditions: Homo sapiens, CHL-1;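 further: cell growth inhibition, read out with a cell viability assay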
Description: SANGER: Inhibition of human CHL-1 cell growth in a cell viability assay.

8505C = conditions: Homo sapiens, 8505C
Description: SANGER: Inhibition of human 8505C cell growth in a cell viability assay.

SW1573 = conditions: Homo sapiens, SW1573;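 further: growth inhibition of SW1573 cells, read out with a cell viability assay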
Description: SANGER: Inhibition of human SW1573 cell growth in a cell viability assay.

NUGC-3 = conditions: Homo sapiens, NUGC-3;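 further: growth inhibition of human NUGC-3 cells, read out with a cell viability assay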
Description: SANGER: Inhibition of human NUGC-3 cell growth in a cell viability assay.

LN-405 = conditions: Homo sapiens, LN-405
Description: SANGER: Inhibition of human LN-405 cell growth in a cell viability assay.

SW-620 = conditions: Homo sapiens, SW-620;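 further: growth inhibition of human SW-620 cells, measured by a cell viability assay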
Description: SANGER: Inhibition of human SW620 cell growth in a cell viability assay.

NCI-H2347 = conditions: Homo sapiens, NCI-H2347;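 further: growth inhibition of the cell line, read out with a cell viability assay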
Description: SANGER: Inhibition of human NCI-H2347 cell growth in a cell viability assay.

NCI-H520 = conditions: Homo sapiens, NCI-H520;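 further: growth inhibition of NCI-H520 cells, measured by a cell viability assay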
Description: SANGER: Inhibition of human NCI-H520 cell growth in a cell viability assay.

MCF7 = conditions: Homo sapiens, MCF7;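 further: growth inhibition of human MCF7 cells, read out with a cell viability assay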
Description: SANGER: Inhibition of human MCF7 cell growth in a cell viability assay.

SW1417 = conditions: Homo sapiens, SW1417;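 further: growth inhibition of human SW1417 cells, read out with a cell viability assay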
Description: SANGER: Inhibition of human SW1417 cell growth in a cell viability assay.

RL = conditions: Homo sapiens, RL
Description: SANGER: Inhibition of human RL cell growth in a cell viability assay.

MC-CAR = conditions: Homo sapiens, MC-CAR;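 further: growth inhibition of the human MC-CAR cell line, read out by a cell viability assay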
Description: SANGER: Inhibition of human MC-CAR cell growth in a cell viability assay.

EHEB = conditions: Homo sapiens, EHEB;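 further: growth inhibition of human EHEB cells, read out with a cell viability assay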
Description: SANGER: Inhibition of human EHEB cell growth in a cell viability assay.

NB1 = conditions: Homo sapiens, NB1;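 further: reduction of NB1 cell proliferation, read out with a viability assay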
Description: SANGER: Inhibition of human NB1 cell growth in a cell viability assay.

SIG-M5 = conditions: Homo sapiens, SIG-M5;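 further: cell viability assay read-out, measuring how strongly growth of cultured human SIG-M5 cells is inhibited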
Description: SANGER: Inhibition of human SIG-M5 cell growth in a cell viability assay.

MDA-MB-134-VI = conditions: Homo sapiens, MDA-MB-134-VI
Description: SANGER: Inhibition of human MDA-MB-134-VI cell growth in a cell viability assay.

NCI-H522 = conditions: Homo sapiens, NCI-H522;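 further: cell viability assay measuring growth inhibition of human NCI-H522 cells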
Description: SANGER: Inhibition of human NCI-H522 cell growth in a cell viability assay.

U-698-M = conditions: Homo sapiens, U-698-M
Description: SANGER: Inhibition of human U-698-M cell growth in a cell viability assay.

NCI-H187 = conditions: Homo sapiens, NCI-H187;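 further: growth inhibition of NCI-H187 cells, read out as cell viability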
Description: SANGER: Inhibition of human NCI-H187 cell growth in a cell viability assay.

Compound `CN(C)C(=N)NC(=N)N` [METFORMIN] has an IC50 (NCI-H661) of 4560 µM, an IC50 (RPMI-7951) of 9100 µM and an IC50 (AN3-CA) of over 20000 µM. The IC50 (HCC1937) was over 20000 µM, the IC50 (NCI-H292) was 5870 µM and the IC50 (UO-31) was over 20000 µM. The IC50 (CAMA-1) was 11000 µM, the IC50 (SNU-449) was over 20000 µM and the IC50 (COLO-792) was 7.51 mM. The IC50 (KYSE-180) was 9060 µM, the IC50 (SW756) was over 20000 µM and the IC50 (SCC-9) was 10.2 mM. For the same compound, the IC50 (PFSK-1) was over 20000 µM, the IC50 (HEC-1) was 16200 µM and the IC50 (Hs-578T) was over 20000 µM. The IC50 (MIA PaCa-2) was over 20000 µM, the IC50 (RCM-1) was over 20000 µM and the IC50 (A 172) was 17500 µM. The IC50 (RERF-LC-MS) was 14400 µM, the IC50 (C-33-A) was 9.4 mM and the IC50 (CAPAN-1) was over 20000 µM. The IC50 (MKN-28) was over 20000 µM, the IC50 (SW1783) was over 20000 µM and the IC50 (EFO-21) was over 20000 µM. The IC50 (SiHa) was over 20000 µM, the IC50 (COR-L23) was over 20000 µM and the IC50 (SNU-423) was over 20000 µM. For the same compound, the IC50 (A549) was 4.54 mM, the IC50 (HuO-3N1) was 7800 µM and the IC50 (HCT-116) was over 20000 µM. For the same compound, the IC50 (CHL-1) was 19500 µM, the IC50 (8505C) was 15400 µM and the IC50 (SW1573) was over 20000 µM.

With `CO[C@H]1C[C@@H]2CC[C@@H](C)[C@@](O)(O2)C(=O)C(=O)N2CCCC[C@H]2C(=O)O[C@H]([C@H](C)C[C@@H]2CC[C@@H](OC(=O)C(C)(CO)CO)[C@H](OC)C2)CC(=O)[C@H](C)/C=C(\C)[C@@H](O)[C@@H](OC)C(=O)[C@H](C)C[C@H](C)/C=C/C=C/C=C/1C` [TEMSIROLIMUS] the IC50 (NCI-H661) was 0.117 µM, the IC50 (RPMI-7951) was 0.039 µM and the IC50 (AN3-CA) was 0.0569 µM. It also gave an IC50 (HCC1937) of over 0.2 µM, an IC50 (NCI-H292) of 0.00984 µM and an IC50 (UO-31) of over 0.2 µM. It also gave an IC50 (NUGC-3) of 23.5 nM, an IC50 (CAMA-1) of 0.00477 µM and an IC50 (LN-405) of 135 nM. For the same compound, the IC50 (SW-620) was 106 nM, the IC50 (SNU-449) was over 0.2 µM and the IC50 (COLO-792) was over 0.0002 mM. The IC50 (KYSE-180) was over 0.2 µM, the IC50 (SW756) was over 0.2 µM and the IC50 (NCI-H2347) was over 200 nM. The IC50 (NCI-H520) was over 200 nM, the IC50 (SCC-9) was over 0.0002 mM and the IC50 (PFSK-1) was 0.0277 µM. It also gave an IC50 (HEC-1) of over 0.2 µM, an IC50 (Hs-578T) of 0.0659 µM and an IC50 (MIA PaCa-2) of over 0.2 µM. For the same compound, the IC50 (RCM-1) was over 0.2 µM, the IC50 (A 172) was over 0.2 µM and the IC50 (RERF-LC-MS) was over 0.2 µM. The IC50 (C-33-A) was over 0.0002 mM, the IC50 (CAPAN-1) was over 0.2 µM and the IC50 (MKN-28) was over 0.2 µM. It also gave an IC50 (SW1783) of over 0.2 µM, an IC50 (EFO-21) of over 0.2 µM and an IC50 (SiHa) of over 0.2 µM. The IC50 (MCF7) was over 200 nM, the IC50 (COR-L23) was over 0.2 µM and the IC50 (SNU-423) was 0.173 µM. The IC50 (A549) was 2.02e-05 mM, the IC50 (HuO-3N1) was 0.023 µM and the IC50 (HCT-116) was over 0.2 µM. The IC50 (SW1417) was over 200 nM, the IC50 (CHL-1) was 0.00586 µM and the IC50 (8505C) was over 0.2 µM. It also gave an IC50 (SW1573) of over 0.2 µM.

Compound `Nc1ccn([C@@H]2O[C@H](CO)[C@@H](O)C2(F)F)c(=O)n1` [GEMCITABINE] has an IC50 (NCI-H661) of 0.104 µM, an IC50 (RPMI-7951) of under 0.004 µM and an IC50 (AN3-CA) of 0.203 µM. It also gave an IC50 (HCC1937) of over 1.02 µM, an IC50 (NCI-H292) of 0.0208 µM and an IC50 (RL) of over 1020 nM. For the same compound, the IC50 (MC-CAR) was 11.6 nM, the IC50 (UO-31) was under 0.004 µM and the IC50 (NUGC-3) was 18.3 nM. It also gave an IC50 (CAMA-1) of 0.396 µM, an IC50 (EHEB) of 227 nM and an IC50 (LN-405) of over 1020 nM. For the same compound, the IC50 (SW-620) was 1.35 nM, the IC50 (SNU-449) was 0.0138 µM and the IC50 (NB1) was 488 nM. It also gave an IC50 (COLO-792) of over 0.00102 mM, an IC50 (KYSE-180) of 0.0128 µM and an IC50 (SW756) of 0.0451 µM. The IC50 (NCI-H2347) was 792 nM, the IC50 (NCI-H520) was 18.8 nM and the IC50 (SCC-9) was over 0.00102 mM. The IC50 (PFSK-1) was over 1.02 µM, the IC50 (HEC-1) was 0.124 µM and the IC50 (Hs-578T) was over 1.02 µM. The IC50 (SIG-M5) was under 4 nM, the IC50 (MDA-MB-134-VI) was over 1020 nM and the IC50 (MIA PaCa-2) was 0.0234 µM. For the same compound, the IC50 (RCM-1) was 0.665 µM, the IC50 (A 172) was 0.0247 µM and the IC50 (RERF-LC-MS) was 0.177 µM. The IC50 (NCI-H522) was 4.34 nM, the IC50 (U-698-M) was 345 nM and the IC50 (C-33-A) was under 4e-06 mM. For the same compound, the IC50 (CAPAN-1) was 0.00923 µM, the IC50 (MKN-28) was over 1.02 µM and the IC50 (SW1783) was under 0.004 µM. For the same compound, the IC50 (EFO-21) was 0.0537 µM, the IC50 (SiHa) was over 1.02 µM and the IC50 (MCF7) was under 4 nM. It also gave an IC50 (COR-L23) of 0.0141 µM, an IC50 (SNU-423) of 0.0625 µM and an IC50 (NCI-H187) of over 1020 nM. The IC50 (HuO-3N1) was over 1.02 µM, the IC50 (HCT-116) was 0.0508 µM and the IC50 (SW1417) was over 1020 nM. The IC50 (CHL-1) was under 0.004 µM, the IC50 (8505C) was 0.00106 µM and the IC50 (SW1573) was 0.457 µM.
